From patent US20240350447A1, “DELIVERY METHODS FOR TREATING BRAIN AND CENTRAL NERVOUS SYSTEM DISEASES” (JENIVISION INC., priority 2021, published 2024)

Key:
[1] = Baseline endogenous levels of DHA, DHA-EE and JV-DE1; type: in vivo; settings: undosed Bama minipigs
Experimental: Endogenous levels were measured in the plasma, cerebrospinal fluid, ocular tissues (retina, optic nerve, ocular muscles), and brain. The endogenous levels DHA are not attributable to NIODP administration of DHA, DHA-EE, or JV-DE1. The baseline data collected in Table 4 was taken from the same lot of pigs, from the same vendor, as the information collected in Tables 5-7.

[2] = DHA-EE distribution after single periorbital skin administration; type: in vivo, Bama minipigs
Experimental: In this example, 6174 μg/eye of docohexaenoic acid ethyl ester (DHA-EE) was applied to the periorbital skin of a left eye of a Bama minipig. […] 21099.7 ng/g of tissue and 21336.3 ng/g of tissue of DHA was measured in the left and right halves of the brain, respectively. […] The average amount of DHA present in the brain 3 hours post-dosage was 21218 ng/g.
Given that the average Bama pig brain weighs around 60 g, the amount of DHA delivered to the brain can be estimated to be 27,600 ng or 27.6 μg. Therefore, the percentage of administered dose=27.6 μg delivered to brain/6174 μg dosed=0.45% of DHA topically administered to the pig via periorbital administration was delivered to the brain. As a comparison, only about 0.025% of DHA that is orally administered is delivered to the brain or CNS.

[3] = 0 h, DHA-EE 6174 μg to periorbital skin of left eye
[4] = 1 h, DHA-EE 6174 μg to periorbital skin of left eye
[5] = 3 h, DHA-EE 6174 μg to periorbital skin of left eye

## CC/C=C\C/C=C\C/C=C\C/C=C\C/C=C\C/C=C\CCC(=O)OCC [DHA-EE, Docosahexaenoic acid ethyl ester]
[1]
  Baseline endogenous concentration in brain: BLQ
  Baseline endogenous concentration in cerebrospinal fluid: BLQ
  Baseline endogenous concentration in eye tissue homogenate including (Retina, optic nerve, ocular muscle): BLQ
  Baseline endogenous concentration in plasma: BLQ
[2]; [3]
  Drug Concentration in Plasma, analyte DHA: BLQ
  Drug Concentration in Plasma, analyte DHA-EE: BLQ
[2]; [4]
  Drug Concentration in Plasma, analyte DHA: BLQ
  Drug Concentration in Plasma, analyte DHA-EE: BLQ
[2]; 3 h, DHA-EE 6174 μg periorbital, whole brain estimate
  Percentage of administered dose delivered to the brain (as DHA): 0.45%
[2]; [5]
  Analyte DHA, % of administered dose: Cerebrospinal fluid: 0%
  Analyte DHA, % of administered dose: brain-left: 0.332%
  Analyte DHA, % of administered dose: brain-right: 0.562%
  Analyte DHA, % of administered dose: inferior rectus muscle-left: 0.008%
  Analyte DHA, % of administered dose: inferior rectus muscle-right: 0.009%
  Analyte DHA, % of administered dose: lateral rectus muscle-left: 0.004%
  Analyte DHA, % of administered dose: lateral rectus muscle-right: 0.010%
  Analyte DHA, % of administered dose: medial rectus muscle-left: 0.020%
  Analyte DHA, % of administered dose: medial rectus muscle-right: 0.016%
  Analyte DHA, % of administered dose: optic nerve-left: 0.011%
  Analyte DHA, % of administered dose: optic nerve-right: 0.031%
  Analyte DHA, % of administered dose: retina-left: 0.130%
  Analyte DHA, % of administered dose: retina-right: 0.110%
  Analyte DHA, % of administered dose: superior rectus muscle-left: 0.043%
  Analyte DHA, % of administered dose: superior rectus muscle-right: 0.005%
  Analyte DHA, Concentration in Tissue: Cerebrospinal fluid: 0 ng/g
  Analyte DHA, Concentration in Tissue: brain-left: 21099.7 ng/g
  Analyte DHA, Concentration in Tissue: brain-right: 21336.3 ng/g
  Analyte DHA, Concentration in Tissue: inferior rectus muscle-left: 3161.1 ng/g
  Analyte DHA, Concentration in Tissue: inferior rectus muscle-right: 1287.8 ng/g
  Analyte DHA, Concentration in Tissue: lateral rectus muscle-left: 1356.3 ng/g
  Analyte DHA, Concentration in Tissue: lateral rectus muscle-right: 1085.6 ng/g
  Analyte DHA, Concentration in Tissue: medial rectus muscle-left: 4874.6 ng/g
  Analyte DHA, Concentration in Tissue: medial rectus muscle-right: 1690.7 ng/g
  Analyte DHA, Concentration in Tissue: optic nerve-left: 8794.6 ng/g
  Analyte DHA, Concentration in Tissue: optic nerve-right: 8839.4 ng/g
  Analyte DHA, Concentration in Tissue: retina-left: 48882.9 ng/g
  Analyte DHA, Concentration in Tissue: retina-right: 41629.4 ng/g
  Analyte DHA, Concentration in Tissue: superior rectus muscle-left: 10400.7 ng/g
  Analyte DHA, Concentration in Tissue: superior rectus muscle-right: 743.6 ng/g
  Analyte DHA-EE, % of administered dose: Cerebrospinal fluid: 0%
  Analyte DHA-EE, % of administered dose: brain-left: 0%
  Analyte DHA-EE, % of administered dose: brain-right: 0%
  Analyte DHA-EE, % of administered dose: inferior rectus muscle-left: 0.02%
  Analyte DHA-EE, % of administered dose: inferior rectus muscle-right: 0%
  Analyte DHA-EE, % of administered dose: lateral rectus muscle-left: 0.003%
  Analyte DHA-EE, % of administered dose: lateral rectus muscle-right: 0%
  Analyte DHA-EE, % of administered dose: medial rectus muscle-left: 0.02%
  Analyte DHA-EE, % of administered dose: medial rectus muscle-right: 0%
  Analyte DHA-EE, % of administered dose: optic nerve-left: 0%
  Analyte DHA-EE, % of administered dose: optic nerve-right: 0%
  Analyte DHA-EE, % of administered dose: retina-left: 0%
  Analyte DHA-EE, % of administered dose: retina-right: 0%
  Analyte DHA-EE, % of administered dose: superior rectus muscle-left: 0.04%
  Analyte DHA-EE, % of administered dose: superior rectus muscle-right: 0%
  Analyte DHA-EE, Concentration in Tissue: Cerebrospinal fluid: 0 ng/g
  Analyte DHA-EE, Concentration in Tissue: brain-left: 0 ng/g
  Analyte DHA-EE, Concentration in Tissue: brain-right: 0 ng/g
  Analyte DHA-EE, Concentration in Tissue: inferior rectus muscle-left: 7444.8 ng/g
  Analyte DHA-EE, Concentration in Tissue: inferior rectus muscle-right: 0 ng/g
  Analyte DHA-EE, Concentration in Tissue: lateral rectus muscle-left: 995.7 ng/g
  Analyte DHA-EE, Concentration in Tissue: lateral rectus muscle-right: 0 ng/g
  Analyte DHA-EE, Concentration in Tissue: medial rectus muscle-left: 7382.3 ng/g
  Analyte DHA-EE, Concentration in Tissue: medial rectus muscle-right: 0 ng/g
  Analyte DHA-EE, Concentration in Tissue: optic nerve-left: 0 ng/g
  Analyte DHA-EE, Concentration in Tissue: retina-left: 0 ng/g
  Analyte DHA-EE, Concentration in Tissue: retina-right: 0 ng/g
  Analyte DHA-EE, Concentration in Tissue: superior rectus muscle-left: 12844.5 ng/g
  Analyte DHA-EE, Concentration in Tissue: superior rectus muscle-right: 0 ng/g
  Average DHA present in the brain: 21218 ng/g
  DHA-EE in ocular muscles of the dosed eye: detectable
  DHA-EE measured in the brain: no DHA-EE was measured in the brain
  Drug Concentration in Plasma, analyte DHA: BLQ
  Drug Concentration in Plasma, analyte DHA-EE: BLQ
